Source: patent US10822318B2, “Lactone-based probes and methods of use thereof” (REGENTS OF THE UNIVERSITY OF MINNESOTA, priority 2017, dated 2020)

Experiments:
PBPs = test: Gel-based analysis of β-lactone probes applied to Bacillus subtilis PY79 cells; type: cell-based; details: B. subtilis PY79 cells, probe 5 μg/ml
Description: Bacillus subtilis strain PY79, was grown in Luria Bertani (LB) medium in 100×17 mm tubes by incubation at 37° C., shaking at 200 rpm. For labeling experiments, overnight cultures were diluted to OD600=0.01-0.05 and grown as above. Samples with OD600=0.35-0.40 were utilized in labeling experiments conducted as previously described (Kocaoglu, O, et al. (2013) Curr Protoc Chem Biol 5, 239), and summarized as follows: Cell pellets from 1.0 ml of B. subtilis cultures were harvested by centrifugation (8,000×g for 2 min at RT) and washed with phosphate buffered saline (PBS; pH 7.4). […] The protein concentration was measured by NanoDrop 1000 Spectrophotometer (Thermo Scientific) or NanoPhotometer P330 (IMPLEN). […] The protein bands were separated by gel electrophoresis for 1.5 h at 180 V, 400 mA, 60 W. The gel was rinsed with distilled water three times before fluorescence scanning (method description for FIGS. 10a and 10b). […]
After SDS-PAGE, labeled proteins were visualized at 50-μm resolution in gels using a Typhoon 9210 gel scanner (Amersham Biosciences) with 580-nm bandpass filter for TAMRA, 526-nm short-pass filter for fluorescein and BODIPY FL, and 670-nm bandpass filter for BODIPY 650/665. All gel images were analyzed using ImageJ software (National Institutes of Health). […]

S. pneumoniae cells = test: 3D-SIM imaging of lactone probe labeled cells; type: cell-based; details: for late divisional cells showing central septal labeling: untreated, ≈41 cells examined
Description: Cells from an overnight culture were diluted to OD620 0.02 in 2 ml of fresh BHI prewarmed to 37° C. and incubated at 37° C. in an atmosphere of 5% CO2. At OD620 0.2, 1.5 ml of culture was added to a microfuge tube and centrifuged at room temperature for 5 min at 16000×g. The supernatant was discarded, the pellet was resuspended in 1 ml room temperature PBS, and the culture was centrifuged a second time. The supernatant was discarded and the pellet was resuspended in either 50 μl of PBS with 5 μg mL^−1 7FL or 100 μl PBS with 5 μg mL^−1 8T. The cells were incubated for 20 min at room temperature in the dark. After incubation the cells were spun and washed with 1 ml of PBS (7FL) or 1 ml of PBS containing 50 mM glucose (8T). The cells were spun a second time and washed with 200 μl of PBS (7FL) or 200 μl of PBS with 50 mM glucose (8T), and finally spun a third time and resuspended in 100 μl of cold (4° C.) GTE buffer (50 mM glucose, 20 mM Tris pH 7.5, 1 mM EDTA). The cells were spun down at 4° C., the supernatant was discarded, and the pellet was resuspended in 15 μl of Vectashield Hardest Antifade (Vector Labs) and kept on ice. 1.2 μl of cells in antifade was pipetted onto a clean coverslip, applied to a slide, and imaged via 3D-SIM. 3D-SIM was performed using the OMX 3D-SIM super-resolution system located in the Indiana University Bloomington Light Microscopy Imaging Center (www.indiana.edu/˜lmic/microscopes/index.html#OMX). The system used is equipped with four Photometrics Cascade II EMCCD cameras that allow simultaneous imaging of up to four colors, and is controlled by DV-OMX software, with image processing by Applied Precision softWoRx 6.0.0 software. Exposure times and % T settings for DAPI, Alexa 488, and Alexa 568 images were 5 ms and 100% for all three channels.
For pre-treatment with methicillin followed by lactone probe labeling, duplicate 2 ml cultures of each strain were created and incubated as described above. At OD620 0.12, methicillin was added to a final concentration of 0.1 μg mL^−1 to one culture for each strain, and the strains were placed back in the incubator. After 20 min, all cultures were harvested, labeled, and imaged as described above.
For labeling of cells with both lactone probes, the following changes were made: After a 20 min incubation with 7FL, the cells were spun down and washed once in 1 ml of PBS. The cells were spun again and resuspended in 100 μl of 8T in PBS at 5 μg mL^−1. The cells were incubated for 20 min at room temperature in the dark, and then washed and imaged as described above for 8T labeling.

Row | Substance | PBPs labeled (gel-based labeling profile) (PBPs) | cells with labeling excluded from the center of the division site (S. pneumoniae cells; after pre-treatment with 7FL, wild-type and Δpbp1b cells) | late divisional cells showing central septal labeling (S. pneumoniae cells; wild-type) | late divisional cells showing central septal labeling (S. pneumoniae cells; Δpbp1b)
1 | (2S, 3R)-β-lactone-D-Phe-TAMRA [Probe 8T] | PBP1, PBP2b and PBP5 | > 83% | 80.5% | 75.6%
2 | (2S,3R)-β-lactone-L-Phe-fluorescein [Probe 7FL] | comparable to the TAMRA probes |  | 85% | 73%
